Data: US20240132531A1, “NOVEL GALACTOSIDE INHIBITOR OF GALECTINS” (GALECTO BIOTECH AB, priority 2020, published 2024)

Key:
galectin-3 = galectin-3 (Homo sapiens, UniProt P17931); experiment: Fluorescence anisotropy assay, affinity for galectin-3; assay type: binding; conditions: compound as inhibitor of the interaction between galectin and a fluorescein tagged saccharide probe; read-out: Gal-3 Kd
Method: (§1) The affinity of Example 1-39 for galectins were determined by a fluorescence anisotropy assay where the compound was used as an inhibitor of the interaction between galectin and a fluorescein tagged saccharide probe as described Sarme, P., Kahl-Knutsson, B., Huflejt, M., Nilsson, U. J., and Leffler H. (2004) Fluorescence polarization as an analytical tool to evaluate galectin-ligand interactions. Anal. Biochem. 334: 36-47, (Sarme et al., 2004) and Monovalent interactions of Galectin-1 By Salomonsson, Emma; Larumbe, Amaia; Tejler, Johan; Tullberg, Erik; Rydberg, Hanna; Sundin, Anders; Khabut, Areej; Frejd, Torbjorn; Lobsanov, Yuri D.; Rini, James M.; et al, From Biochemistry (2010), 49(44), 9518-9532, (Salomonsson et al., 2010).

galectin-1 = galectin-1 (Homo sapiens, UniProt P09382); experiment: Fluorescence anisotropy assay, affinity for galectin-1; assay type: binding; conditions: compound as inhibitor of the interaction between galectin and a fluorescein tagged saccharide probe; read-out: Gal-1 Kd
galectin-1, sequence (P09382 whole entry): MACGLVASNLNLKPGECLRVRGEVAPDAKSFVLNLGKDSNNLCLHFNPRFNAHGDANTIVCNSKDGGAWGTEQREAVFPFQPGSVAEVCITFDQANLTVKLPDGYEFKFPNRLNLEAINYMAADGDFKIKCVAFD
Method: as §1

galectin-3, sequence (P17931 whole entry): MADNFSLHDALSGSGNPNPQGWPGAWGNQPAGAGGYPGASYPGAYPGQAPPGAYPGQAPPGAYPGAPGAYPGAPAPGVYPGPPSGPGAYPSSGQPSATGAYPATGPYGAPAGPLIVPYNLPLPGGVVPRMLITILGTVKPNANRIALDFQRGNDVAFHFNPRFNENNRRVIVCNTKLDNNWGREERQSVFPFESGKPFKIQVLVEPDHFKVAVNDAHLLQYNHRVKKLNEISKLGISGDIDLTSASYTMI

| SMILES | Kd (galectin-3) | Kd (galectin-1) |
| --- | --- | --- |
| COC1C(n2cc(-c3nc(Cl)cs3)nn2)[C@@H](O)C(CO)O[C@H]1c1cc(Cl)nn1-c1cc(Cl)ccc1C(F)(F)F (stereo partly drawn) [Example 25, 1-{5-{3-[4-(4-Chlorothiazol-2-yl)-1H-1,2,3-triazol-1-yl]-3-deoxy-2-O-methyl-β-D-galactopyranosyl}-3-chloro-1H-1,2-pyrazol-1-yl}-5-chloro-2-(trifluoromethyl)benzene] | 180 nM | 40 nM |
| C=C(C)c1cc([C@@H]2OC(CO)[C@H](O)C(n3cc(-c4nc(Cl)cs4)nn3)C2OC)n(-c2cc(Cl)ccc2C(F)(F)F)n1 (stereo partly drawn) [Example 27, 1-{5-{3-[4-(4-Chlorothiazol-2-yl)-1H-1,2,3-triazol-1-yl]-3-deoxy-2-O-methyl-β-D-galactopyranosyl}-3-(1-methylethenyl)-1H-1,2-pyrazol-1-yl}-5-chloro-2-(trifluoromethyl)benzene] | 1200 nM | 540 nM |
| COC1C(n2cc(-c3nc(Cl)cs3)nn2)[C@@H](O)C(CO)O[C@H]1c1cc(C(C)C)nn1-c1cc(Cl)ccc1C(F)(F)F (stereo partly drawn) [Example 28, 1-{5-{3-[4-(4-Chlorothiazol-2-yl)-1H-1,2,3-triazol-1-yl]-3-deoxy-2-O-methyl-β-D-galactopyranosyl}-3-isopropyl-1H-1,2-pyrazol-1-yl}-5-chloro-2-(trifluoromethyl)benzene] | 320 nM | 180 nM |
| C=Cc1cc([C@@H]2OC(CO)[C@H](O)C(n3cc(-c4nc(Cl)cs4)nn3)C2OC)n(-c2cc(Cl)ccc2C(F)(F)F)n1 (stereo partly drawn) [Example 29, 1-{5-{3-[4-(4-Chlorothiazol-2-yl)-1H-1,2,3-triazol-1-yl]-3-deoxy-2-O-methyl-β-D-galactopyranosyl}-3-ethenyl-1H-1,2-pyrazol-1-yl}-5-chloro-2-(trifluoromethyl)benzene] | 480 nM | 190 nM |
| CCc1cc([C@@H]2OC(CO)[C@H](O)C(n3cc(-c4nc(Cl)cs4)nn3)C2OC)n(-c2cc(Cl)ccc2C(F)(F)F)n1 (stereo partly drawn) [Example 30, 1-{5-{3-[4-(4-Chlorothiazol-2-yl)-1H-1,2,3-triazol-1-yl]-3-deoxy-2-O-methyl-β-D-galactopyranosyl}-3-ethyl-1H-1,2-pyrazol-1-yl}-5-chloro-2-(trifluoromethyl)benzene] | 680 nM | 100 nM |
| COC1C(n2cc(-c3nc(Cl)cs3)nn2)[C@@H](O)C(CO)O[C@H]1c1cc(C#N)nn1-c1cc(Cl)ccc1C(F)(F)F (stereo partly drawn) [Example 31, 1-{5-{3-[4-(4-Chlorothiazol-2-yl)-1H-1,2,3-triazol-1-yl]-3-deoxy-2-O-methyl-β-D-galactopyranosyl}-3-cyano-1H-1,2-pyrazol-1-yl}-5-chloro-2-(trifluoromethyl)benzene] | 400 nM | 71 nM |
| COC1C(n2cc(-c3csc(N)n3)nn2)[C@@H](O)C(CO)O[C@H]1c1ccnn1-c1cc(Cl)ccc1C(F)(F)F (stereo partly drawn) [Example 34, 1-{5-{3-[4-(2-Aminothiazol-4-yl)-1H-1,2,3-triazol-1-yl]-3-deoxy-2-O-methyl-β-D-galactopyranosyl}-1H-1,2-pyrazol-1-yl}-5-chloro-2-(trifluoromethyl)benzene] | 6700 nM | 49 nM |
| COC1C(n2cc(-c3csc(O)n3)nn2)[C@@H](O)C(CO)O[C@H]1c1ccnn1-c1cc(Cl)ccc1C(F)(F)F (stereo partly drawn) [Example 35, 5-Chloro-1-{5-{3-deoxy-3-[4-(2-hydroxythiazol-4-yl)-1H-1,2,3-triazol-1-yl]-2-O-methyl-β-D-galactopyranosyl}-1H-1,2-pyrazol-1-yl}-2-(trifluoromethyl)benzene] | 4200 nM | 31 nM |
| COC1C(n2cc(-c3cscn3)nn2)[C@@H](O)C(CO)O[C@H]1c1ccnn1-c1cc(Cl)ccc1C(F)(F)F (stereo partly drawn) [Example 38, 5-Chloro-1-{5-{3-deoxy-2-O-methyl-3-[4-(4-thiazolyl)-1H-1,2,3-triazol-1-yl]-β-D-galactopyranosyl}-1H-1,2-pyrazol-1-yl}-2-(trifluoromethyl)benzene] | 4900 nM | 120 nM |
| COC1C(n2cc(-c3nc(Cl)cs3)nn2)[C@@H](O)C(CO)O[C@H]1c1cc(C(N)=O)nn1-c1cc(Cl)ccc1C(F)(F)F (stereo partly drawn) [Example 39, 1-{3-Aminocarbonyl-5-{3-[4-(4-chlorothiazol-2-yl)-1H-1,2,3-triazol-1-yl]-3-deoxy-2-O-methyl-β-D-galactopyranosyl}-1H-1,2-pyrazol-1-yl}-5-chloro-2-(trifluoromethyl)benzene] | 320 nM | 200 nM |

More lines, now with the values ahead:

| Kd (galectin-3) | Kd (galectin-1) | SMILES |
| --- | --- | --- |
| 200 nM | 36 nM | OCC1O[C@@H](c2ccnn2-c2cc(Br)c(F)cc2C(F)(F)F)C(O)[C@@H](n2cc(-c3nc(Cl)cs3)nn2)[C@H]1O (stereo partly drawn) [Example 24, 5-Bromo-1-{5-{3-[4-(4-chlorothiazol-2-yl)-1H-1,2,3-triazol-1-yl]-3-deoxy-β-D-galactopyranosyl}-1H-1,2-pyrazol-1-yl}-4-fluoro-2-(trifluoromethyl)benzene] |
| 750 nM | 66 nM | COC1C(n2cc(-c3nc(Cl)cs3)nn2)[C@@H](O)C(CO)O[C@H]1c1cc(Br)nn1-c1cc(Cl)ccc1C(F)(F)F (stereo partly drawn) [Example 26, 1-{3-Bromo-5-{3-[4-(4-chlorothiazol-2-yl)-1H-1,2,3-triazol-1-yl]-3-deoxy-2-O-methyl-β-D-galactopyranosyl}-1H-1,2-pyrazol-1-yl}-5-chloro-2-(trifluoromethyl)benzene] |
| 650 nM | 50 nM | COC1C(n2cc(-c3nc(Cl)cs3)nn2)[C@@H](O)C(CO)O[C@H]1c1ccnn1-c1cc(Cl)cnc1C(F)(F)F (stereo partly drawn) [Example 32, 3-{5-{3-[4-(4-Chlorothiazol-2-yl)-1H-1,2,3-triazol-1-yl]-3-deoxy-2-O-methyl-β-D-galactopyranosyl}-1H-1,2-pyrazol-1-yl}-5-chloro-2-(trifluoromethyl)pyridine] |
| 530 nM | 32 nM | COC1C(n2cc(-c3nc(Cl)cs3)nn2)[C@@H](O)C(CO)O[C@H]1c1ccnn1-c1cc(Br)cnc1C(F)(F)F (stereo partly drawn) [Example 33, 5-Bromo-3-{5-{3-[4-(4-chlorothiazol-2-yl)-1H-1,2,3-triazol-1-yl]-3-deoxy-2-O-methyl-β-D-galactopyranosyl}-1H-1,2-pyrazol-1-yl}-2-(trifluoromethyl)pyridine] |
| 9400 nM | 26 nM | COC1C(n2cc(-c3csc(O)n3)nn2)[C@@H](O)C(CO)O[C@H]1c1ccnn1-c1cc(Cl)c(Cl)cc1C(F)(F)F (stereo partly drawn) [Example 36, 4,5-Dichloro-1-{5-{3-deoxy-3-[4-(2-hydroxythiazol-4-yl)-1H-1,2,3-triazol-1-yl]-2-O-methyl-β-D-galactopyranosyl}-1H-1,2-pyrazol-1-yl}-2-(trifluoromethyl)benzene] |
| 4700 nM | 17 nM | COC1C(n2cc(-c3csc(O)n3)nn2)[C@@H](O)C(CO)O[C@H]1c1ccnn1-c1cc(Br)c(F)cc1C(F)(F)F (stereo partly drawn) [Example 37, 5-Bromo-1-{5-{3-deoxy-3-[4-(2-hydroxythiazol-4-yl)-1H-1,2,3-triazol-1-yl]-2-O-methyl-β-D-galactopyranosyl}-1H-1,2-pyrazol-1-yl}-4-fluoro-2-(trifluoromethyl)benzene] |
